Results reported in patent publication US10202387B2, “Heterocyclyl linked imidazopyridazine derivatives as PI3KB inhibitors” (Janssen Pharmaceutica NV, priority 2014, dated 2019).

Tests used:
MTOR_h = biological target: T1, MTOR_h (Homo sapiens, UniProt P42345); assay: Enzyme binding assay (KINOMEscan); settings: DiscoveRx
T1 construct: purchased DiscoveRx Corporation, San Diego (KINOMEscan service)
Method: (§1) Enzyme Binding Assays (KINOMEscan®)
(§2) Kinase enzyme binding affinities of compounds disclosed herein were determined using the KINOMEscan technology performed by DiscoveRx Corporation, San Diego, Calif., USA (www.kinomescan.com). Table A reports the obtained Kd values (nM), with the Kd being the inhibitor binding constant: […]

PIK3Cα_h = biological target: T2, PIK3Cα_h (Homo sapiens, UniProt P42336); assay: Enzyme binding assay (KINOMEscan); settings: DiscoveRx
T2 construct: purchased DiscoveRx Corporation, San Diego (KINOMEscan service)
T2 sequence (P42336 whole entry): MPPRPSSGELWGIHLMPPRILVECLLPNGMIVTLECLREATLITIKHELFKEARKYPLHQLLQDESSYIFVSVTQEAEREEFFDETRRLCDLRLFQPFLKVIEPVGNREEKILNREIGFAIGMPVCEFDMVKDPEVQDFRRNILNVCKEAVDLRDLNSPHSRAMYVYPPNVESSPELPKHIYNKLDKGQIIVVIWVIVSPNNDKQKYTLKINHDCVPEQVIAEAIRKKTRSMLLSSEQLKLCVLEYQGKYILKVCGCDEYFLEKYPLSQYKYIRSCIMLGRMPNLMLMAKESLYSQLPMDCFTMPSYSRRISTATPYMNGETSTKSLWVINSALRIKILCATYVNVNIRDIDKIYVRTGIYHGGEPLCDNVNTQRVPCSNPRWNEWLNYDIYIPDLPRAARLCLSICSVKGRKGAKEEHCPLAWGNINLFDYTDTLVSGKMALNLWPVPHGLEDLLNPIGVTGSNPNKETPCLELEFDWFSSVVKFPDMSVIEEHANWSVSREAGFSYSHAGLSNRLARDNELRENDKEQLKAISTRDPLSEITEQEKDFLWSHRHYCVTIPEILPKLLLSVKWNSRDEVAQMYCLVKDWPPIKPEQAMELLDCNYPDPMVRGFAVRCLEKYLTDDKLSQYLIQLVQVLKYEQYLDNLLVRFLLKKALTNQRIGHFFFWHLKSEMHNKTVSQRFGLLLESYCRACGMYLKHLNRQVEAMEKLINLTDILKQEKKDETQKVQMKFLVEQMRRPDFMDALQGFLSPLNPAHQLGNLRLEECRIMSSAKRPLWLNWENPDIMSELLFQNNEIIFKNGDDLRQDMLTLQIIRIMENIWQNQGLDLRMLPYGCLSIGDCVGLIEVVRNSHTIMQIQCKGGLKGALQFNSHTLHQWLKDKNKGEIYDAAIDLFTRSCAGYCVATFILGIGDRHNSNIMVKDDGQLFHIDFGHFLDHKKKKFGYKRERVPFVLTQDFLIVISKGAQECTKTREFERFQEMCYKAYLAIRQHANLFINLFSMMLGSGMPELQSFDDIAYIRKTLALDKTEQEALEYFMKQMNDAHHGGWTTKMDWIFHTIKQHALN
Method: as §1, §2

PIK3Cβ_h = biological target: T3, PIK3Cβ_h (Homo sapiens, UniProt P42338); assay: Enzyme binding assay (KINOMEscan); settings: DiscoveRx
T3 construct: purchased DiscoveRx Corporation, San Diego (KINOMEscan service)
T3 sequence (P42338 whole entry): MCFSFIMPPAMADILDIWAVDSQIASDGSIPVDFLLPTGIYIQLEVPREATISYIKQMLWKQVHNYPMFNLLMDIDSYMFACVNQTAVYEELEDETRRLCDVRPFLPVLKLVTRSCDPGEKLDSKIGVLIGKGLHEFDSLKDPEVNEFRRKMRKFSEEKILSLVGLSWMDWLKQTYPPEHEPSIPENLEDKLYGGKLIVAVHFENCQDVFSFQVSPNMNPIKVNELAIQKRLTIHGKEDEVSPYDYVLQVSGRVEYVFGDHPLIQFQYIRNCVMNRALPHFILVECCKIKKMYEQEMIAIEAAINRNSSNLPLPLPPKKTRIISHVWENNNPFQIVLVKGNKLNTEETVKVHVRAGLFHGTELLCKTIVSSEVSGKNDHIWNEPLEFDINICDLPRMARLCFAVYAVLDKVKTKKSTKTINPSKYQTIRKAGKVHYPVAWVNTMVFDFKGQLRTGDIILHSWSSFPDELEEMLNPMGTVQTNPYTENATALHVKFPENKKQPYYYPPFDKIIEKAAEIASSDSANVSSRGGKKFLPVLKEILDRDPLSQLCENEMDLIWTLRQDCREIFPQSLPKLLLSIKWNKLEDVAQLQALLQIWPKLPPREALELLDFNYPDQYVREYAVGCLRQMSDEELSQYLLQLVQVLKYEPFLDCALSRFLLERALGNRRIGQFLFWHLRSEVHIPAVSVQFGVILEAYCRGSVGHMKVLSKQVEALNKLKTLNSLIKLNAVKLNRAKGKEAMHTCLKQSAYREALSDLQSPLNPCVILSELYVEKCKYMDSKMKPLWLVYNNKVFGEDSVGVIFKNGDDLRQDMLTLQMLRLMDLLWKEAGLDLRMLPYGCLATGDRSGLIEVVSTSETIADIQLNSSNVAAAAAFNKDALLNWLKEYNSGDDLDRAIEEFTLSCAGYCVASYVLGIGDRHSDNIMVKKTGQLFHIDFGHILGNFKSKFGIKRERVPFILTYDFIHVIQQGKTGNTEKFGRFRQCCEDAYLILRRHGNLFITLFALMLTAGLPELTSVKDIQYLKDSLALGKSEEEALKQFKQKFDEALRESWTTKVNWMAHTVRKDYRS
Method: as §1, §2

PIK3Cγ_h = biological target: T4, PIK3Cγ_h (Homo sapiens, UniProt P48736); assay: Enzyme binding assay (KINOMEscan); settings: DiscoveRx
T4 construct: purchased DiscoveRx Corporation, San Diego (KINOMEscan service)
T4 sequence (P48736 whole entry): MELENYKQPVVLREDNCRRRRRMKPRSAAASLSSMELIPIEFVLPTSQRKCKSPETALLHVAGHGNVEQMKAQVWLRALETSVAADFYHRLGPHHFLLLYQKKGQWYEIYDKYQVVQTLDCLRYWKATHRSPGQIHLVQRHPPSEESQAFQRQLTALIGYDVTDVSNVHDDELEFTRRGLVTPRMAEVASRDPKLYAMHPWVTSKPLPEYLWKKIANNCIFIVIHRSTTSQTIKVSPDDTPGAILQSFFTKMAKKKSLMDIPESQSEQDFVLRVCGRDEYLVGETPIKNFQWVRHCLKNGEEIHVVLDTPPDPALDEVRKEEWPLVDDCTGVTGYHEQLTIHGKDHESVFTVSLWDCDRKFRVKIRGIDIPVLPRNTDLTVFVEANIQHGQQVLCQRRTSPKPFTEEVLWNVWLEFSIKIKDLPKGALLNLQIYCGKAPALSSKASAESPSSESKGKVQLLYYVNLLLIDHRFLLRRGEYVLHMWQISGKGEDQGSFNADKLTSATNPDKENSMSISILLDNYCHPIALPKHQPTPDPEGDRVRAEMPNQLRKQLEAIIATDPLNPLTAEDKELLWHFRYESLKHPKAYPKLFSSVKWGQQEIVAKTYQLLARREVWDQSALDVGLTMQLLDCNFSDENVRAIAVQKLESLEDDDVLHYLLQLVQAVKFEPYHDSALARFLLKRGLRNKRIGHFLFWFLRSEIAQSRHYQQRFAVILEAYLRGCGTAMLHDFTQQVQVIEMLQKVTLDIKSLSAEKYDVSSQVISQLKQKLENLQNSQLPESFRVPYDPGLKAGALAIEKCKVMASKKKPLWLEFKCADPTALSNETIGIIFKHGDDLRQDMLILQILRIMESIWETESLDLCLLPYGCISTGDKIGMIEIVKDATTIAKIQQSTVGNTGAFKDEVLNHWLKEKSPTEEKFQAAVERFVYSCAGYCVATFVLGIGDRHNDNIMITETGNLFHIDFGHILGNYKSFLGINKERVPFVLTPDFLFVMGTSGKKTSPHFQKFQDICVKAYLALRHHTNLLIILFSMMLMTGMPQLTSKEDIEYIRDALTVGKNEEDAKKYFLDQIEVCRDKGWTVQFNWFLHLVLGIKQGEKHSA
Method: as §1, §2

PIK3Cδ_h = biological target: T5, PIK3Cδ_h (Homo sapiens, UniProt O00329); assay: Enzyme binding assay (KINOMEscan); settings: DiscoveRx
T5 construct: purchased DiscoveRx Corporation, San Diego (KINOMEscan service)
T5 sequence (O00329 1-1044): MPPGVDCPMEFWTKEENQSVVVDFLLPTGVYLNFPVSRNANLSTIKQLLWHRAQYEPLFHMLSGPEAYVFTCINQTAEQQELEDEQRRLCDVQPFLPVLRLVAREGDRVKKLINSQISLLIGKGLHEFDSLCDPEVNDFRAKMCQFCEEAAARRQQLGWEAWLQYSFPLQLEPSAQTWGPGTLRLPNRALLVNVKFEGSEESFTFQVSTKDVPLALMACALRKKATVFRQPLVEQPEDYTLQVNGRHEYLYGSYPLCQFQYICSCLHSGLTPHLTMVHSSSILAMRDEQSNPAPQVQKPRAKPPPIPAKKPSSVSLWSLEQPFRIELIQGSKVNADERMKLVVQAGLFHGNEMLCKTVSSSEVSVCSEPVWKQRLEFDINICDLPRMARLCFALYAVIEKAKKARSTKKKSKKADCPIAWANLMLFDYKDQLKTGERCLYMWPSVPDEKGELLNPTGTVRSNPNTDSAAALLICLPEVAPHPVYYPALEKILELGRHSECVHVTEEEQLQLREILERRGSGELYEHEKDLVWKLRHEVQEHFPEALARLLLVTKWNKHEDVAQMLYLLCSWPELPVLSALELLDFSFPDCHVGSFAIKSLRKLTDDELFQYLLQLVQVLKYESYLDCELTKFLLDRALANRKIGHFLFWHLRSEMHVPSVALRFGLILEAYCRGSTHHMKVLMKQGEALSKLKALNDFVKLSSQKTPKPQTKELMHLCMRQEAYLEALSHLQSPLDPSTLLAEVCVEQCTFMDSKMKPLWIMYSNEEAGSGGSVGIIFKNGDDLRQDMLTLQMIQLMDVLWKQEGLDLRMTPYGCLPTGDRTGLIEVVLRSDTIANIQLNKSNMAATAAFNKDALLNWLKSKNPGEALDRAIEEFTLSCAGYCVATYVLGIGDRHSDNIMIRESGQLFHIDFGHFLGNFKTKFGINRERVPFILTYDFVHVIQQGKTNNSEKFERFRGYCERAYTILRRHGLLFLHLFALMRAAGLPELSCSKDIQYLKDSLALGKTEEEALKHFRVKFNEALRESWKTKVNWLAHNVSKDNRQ
Method: as §1, §2

[1] = tested on: Akt phosphorylated at Ser473 in PC-3 cells; assay: Cellular assay: phosphorylation of Akt (Ser473) in PC-3 cells, MSD ELISA; format: cell-based; settings: Homo sapiens, 1 h, 60 min incubation with compound, read-out: IC50 pAkt_S473
Method: (§3) Cellular activity of PI3Kβ inhibitors was determined by quantifying the phosphorylation of Akt in PC-3 cells. Akt phosphorylated at Ser473 and Thr308 were measured using an enzyme-linked immunosorbent assay (ELISA; Meso Scale Discovery (MSD). Gaithersburg, Md.) and specific primary antibodies from MSD.
(§4) On day 1, PC3 cells (ATCC […]) were seeded into PerkinElmer MW96 plates at 25.000 cells per well, in 75 μl complete culture medium (DMEM (Dulbecco's Modified Eagle's Medium) high glucose. AQmedia™, D0819, Sigma-Aldrich) containing 10% heat inactivated FCS (Fetal Bovine Serum) and incubated at 37° C., 5% CO2 during 24 hours. On day 2, compound or DMSO (dimethyl sulfoxide) (0.3%) was added and cells were further incubated for 60 min at 37° C., 5% CO2 in a total volume of 100 μl of medium.
(§5) The phosphoprotein assay was executed according to vendor instructions in the Phospho-Akt (Ser473) Assay Whole Cell Lysate Kit (MSD #K15100D-3) and the Phospho-Akt (Thr308) Assay Whole Cell Lysate Kit (MSD #K151DYD-3) using the lysis, blocking and wash buffer provided.
(§6) Briefly, at the end of the cell treatment period, media were removed by aspiration and adherent cells were lysed in 50 μl ice-cold lysis buffer. MSD plates are supplied pre-coated with capture antibodies for Phospho-Akt (Ser473 and Thr308). After blocking, lysates from tissue culture plates were added and plates were washed. Then, a solution containing the detection antibody (anti-total Akt conjugated with an electrochemiluminescent compound-MSD Sulfo-tag label) was added. The signals were detected using an MSD SECTOR Imager 6000 and are proportional to the phospho-Akt titres.
(§7) Data were processed. The percentage of inhibition was plotted against the log concentration of test compounds, and the sigmoidal log concentration-effect curve of best fit was calculated by nonlinear regression analysis. From these concentration-response curves, the IC50 values were calculated. Five concentrations were used for curve fitting.

[2] = tested on: Akt phosphorylated at Thr308 in PC-3 cells; assay: Cellular assay: phosphorylation of Akt (Thr308) in PC-3 cells, MSD ELISA; format: cell-based; settings: Homo sapiens, 1 h, 60 min incubation with compound, read-out: IC50 pAkt_Thr308
Method: as §3, §4, §5, §6, §7

Row | Kd (MTOR_h) [µM] | Kd (PIK3Cα_h) [µM] | Kd (PIK3Cβ_h) [nM] | Kd (PIK3Cγ_h) [µM] | Kd (PIK3Cδ_h) [nM] | IC50 [1] [nM] | IC50 [2] [nM] | melting point [°C] | SMILES
1 | > 30.2 | 13.5 | 3 | > 30.2 | 398 | 120 | 100 | 228 | Cc1c(Cc2c(CN3CCC4(CCCCS4(=O)=O)C3)nc3c(N)cc(N4CCOCC4)nn23)cccc1C(F)(F)F (centres unmarked) [Compound 33]
2 | 1.23 | 4.47 | 1.1 | 2.69 | 123 | 117 | 55 | 214 | Cc1c(F)cccc1Cc1c(CN2CC(O)C2)nc2c(N)cc(N3CCOCC3)nn12 [Compound 42]
3 | > 30.2 | 15.1 | 2.5 | > 30.2 | 251 | 91 | 74 | 214 | Cc1c(Cc2c(CN3CCC4(CCS4(=O)=O)C3)nc3c(N)cc(N4CCOCC4)nn23)cccc1C(F)(F)F (centres unmarked) [Compound 32]
4 | > 30.2 | 2.24 | 1.5 | > 30.2 | 240 | ~79 | ~68 | 226 | Cc1c(Cc2c(CC(=O)N3CCS(=O)(=O)CC3)nc3c(N)cc(N4CCOCC4)nn23)cccc1C(F)(F)F [Compound 23]
5 | 5.13 | 5.49 | 0.8 | 4.9 | 68 | 158 | 141 | 212 | Cc1c(Cc2c(CNC(=O)[C@H]3CCCN3)nc3c(N)cc(N4CCOCC4)nn23)cccc1C(F)(F)F (stereo in doubt) [Compound 37]
6 | > 30.2 | 0.813 | < 1.5 | 6.76 | 79 | 65 | 58 | 171 | Cc1c(Cc2c(CN3CCCC(CO)C3)nc3c(-c4ncc[nH]4)cc(N4CCOCC4)nn23)cccc1C(F)(F)F (centres unmarked) [Compound 17]
7 | 4.37 | 0.513 | 1.6 | 0.891 | 52 | 50 | 54 | 198 | Cc1c(Cc2c(CN3CC(O)C3)nc3c(-c4ncc[nH]4)cc(N4CCOCC4)nn23)cccc1C(F)(F)F [Compound 19]
8 | 3.98 | 3.16 | 0.5 | 17 | 52 | 49 | 15 | 130 | Cc1c(Cc2c(CC(=O)N3CC(CO)C3)nc3c(N)cc(N4CCOCC4)nn23)cccc1C(F)(F)F [Compound 24]
9 | 10.7 | 2.24 | 0.5 | 8.91 | 56 | 45 | ~26 | 110 | Cc1c(Cc2c(CC(=O)N3CC(C)NC(C)C3)nc3c(N)cc(N4CCOCC4)nn23)cccc1C(F)(F)F (centres unmarked) [Compound 22]
10 | 21.9 | 7.08 | 2.4 | > 30.2 | 263 | 40 | ~13 | 159 | Cc1c(Cc2c(CN3CCC(S(C)(=O)=O)C3)nc3c(N)cc(N4CCOCC4)nn23)cccc1C(F)(F)F (centres unmarked) [Compound 6]
11 | 0.407 | 1.15 | 2 | 5.25 | 98 | 214 | 234 | 159 | Cc1c(Cc2c(CN3CC(C)NC(C)C3)nc3c(-c4ccn[nH]4)cc(N4CCOCC4)nn23)cccc1C(F)(F)F (centres unmarked) [Compound 25]
12 | 15.5 | 11.5 | 1.6 | 30.9 | 195 | 25 | ~20 | 210 | Cc1c(Cc2c(CN3CC(S(C)(=O)=O)C3)nc3c(N)cc(N4CCOCC4)nn23)cccc1C(F)(F)F [Compound 8]
13 | 3.16 | 0.162 | 1.2 | 0.933 | 12 | 9 | ~4 | 217 | Cc1c(Cc2c(CN3CC4(C3)CS(=O)(=O)C4)nc3c(-c4cnc[nH]4)cc(N4CCOCC4)nn23)cccc1C(F)(F)F [Compound 1]
14 | 21.9 | 25.1 | 2.8 | > 30.2 | 479 | 214 | 105 | 99 | Cc1c(Cc2c(COC(=O)CN3CCN(C)CC3)nc3c(N)cc(N4CCOCC4)nn23)cccc1C(F)(F)F [Compound 40b]
15 | 2 | 2.4 | 1.1 | > 30.2 | 178 | > 513 | > 513 | 240 | CCc1c(F)cccc1Cc1c(CN2CCS(=O)(=O)CC2)nc2c(N)cc(N3CCOCC3)nn12 [Compound 45]
16 | 21.4 | 5.49 | 2.1 | > 30.2 | 23 | 6 | ~4 | 180 | Cc1c(Cc2c(CN3CC4(CCS4(=O)=O)C3)nc3c(N)cc(N4CCOCC4)nn23)cccc1C(F)(F)F [Compound 2]
17 | 11.7 | 1.86 | 0.7 | > 30.2 | 81 | 10 | 7 | 214 | Cc1c(Cc2c(CN3CCS(=O)(=O)CC3)nc3c(N)cc(N4CCOCC4)nn23)cccc1C(F)(F)F [Compound 11]
18 | 3.14 | 1.39 | 0.1 | 3 | 5 | ~73 | ~50 | 140 | Cc1c(Cc2c(CNC(=O)[C@@H]3C[C@@H](O)CN3)nc3c(N)cc(N4CCOCC4)nn23)cccc1C(F)(F)F [Compound 36]
19 | > 30.2 | 14.5 | 0.6 | > 30.2 | 65 | 76 | ~39 | 215 | Cc1c(Cc2c(CN3CCC(CO)CC3)nc3c(N)cc(N4CCOCC4)nn23)cccc1C(F)(F)F [Compound 9]
